Experimental data taken from patent US20220402883A1, “COMPOUNDS AND METHODS FOR MODULATING RNA FUNCTION” (Arrakis Therapeutics, Inc., priority 2016, published 2022).

Columns and labels:
[1] = system: Split3WJ.1_up_5IB+Split3WJ.1_down_3FAM (trans 3WJ as 1:1 mix); assay: Fluorescence quenching binding assay (FAM / Iowa Black); conditions: two concentration points
Method: (§1) This assay will be used to test binding of compounds for RNA three way junction (such as a 38 nt construct). This is a fluorescence quenching assay utilizing FAM as fluorescence tag and Iowa Black as quencher. Tags are attached at the 3′ and 5′ end, respectively. Stable formation of MW upon compound binding would lead to quenching of the FAM fluorescence due to close proximity of the Iowa Black tag. Assay readout: FAM (485-520 nm) Fluorescence Intensity.
(§2) Assay sample buffer used: 10 mM CacoK pH 7.2, 30 mM NaCl. Buffer preparation in Dnase/Rnase Free distilled water (Gibco Life Technologies).
(§3) Dilute the RNA 1:10 (final 10 μM) in Assay Buffer.
(§4) Heat up the diluted RNA up to 90° C. for 5 min (sealed Eppendorf Tube).
(§5) Cool down the RNA probe slowly to RT.
(§6) Dilute the compounds to 800 μM in DMSO (Assay: 8 μM).
(§7) Final concentrations in the sample: 1-10 μM RNA, 8 μM compound, 1% DMSO
(§8) Pipet 25 μL Sample Solution into Greiner cat #784076, black, 384
(§9) Measure the 96 plate with the LightCycler480 (Channel: 485/520 nm).
(§10) The fluorescence quenching experiment was repeated for compounds Ark0000013 and Ark0000014 to measure binding with:
B) Split3WJ.1_up_5IB+Split3WJ.1_down_3FAM (trans 3WJ as 1:1 mix)
(§11) Both cmpds were tested at two concentration points in the fluorescence quenching assays to assess effect upon RNA constructs utilized in the study. […]

[2] = system: RNA3WJ_0.0.0_5B_3FAM (3WJ RNA); assay: Ligand observed NMR binding assay (Watergate, WaterLOGSY, STD); conditions: 10 μM RNA, +/− 200 Ark000013
Method: Purpose: Test direct binding of compounds for RNA three way junction (3WJ). This ligand observed NMR assay is used to test direct binding of compounds to an RNA target, for example a 38 nt synthetic RNA 3WJ and others as described below. Ligand observed assay was used for hit validation studies of single compounds. Established experiments were eventually used to perform group epitope mapping, described below.
Sample buffer: 10 mM Cacodylate, pH 7.1; 0.68 g [MW: 137.99 g/mol]; fill up to 500 ml with Millipore H2O.
Compound Stocks: Tool compounds provided as dry powder were prepared as 50 mM stock solution in 100% d6-DMSO. Test compounds provided as dry powder were prepared as 50 mM stock solution in 100% d6-DMSO. Stock solutions of 50 mM concentration in d6-DMSO were stored at 4° C.
NMR spectrometer: Bruker AVANCE600 spectrometer operating at 600.0 MHz for ^1H. 5-mm z-gradient TXI Cryoprobe.
Dried RNA pellet is solubilized in sample buffer 10 mM Cacodylate pH 7.1. […]
Spectra were analyzed for direct binding signals of the compounds. […]
ARK0000013 was also tested in the NMR binding assay. Test Sample: 10 μM RNA3WJ_0.0.0_5B_3FAM+/−200 Ark000013. ^1H 1D Watergate & WaterLOGSY spectra recorded of Ark000013 were used as a reference (Note: aromatic signals observed between 7.4-7.9 ppm and due to symmetry of the center triptycene scaffold all 9 protons are magnetically equivalent).

[3] = system: Split3WJ.2 up_5IB+Split3WJ.2_down_3FAM (trans 3WJ as 1:1 mix); assay: Fluorescence quenching binding assay (FAM / Iowa Black); conditions: two concentration points
Method: as §1, §2, §3, §4, §5, §6, §7, §8, §9, §10
C) Split3WJ.2 up_5IB+Split3WJ.2_down_3FAM (trans 3WJ as 1:1 mix)
as §11

## CN(CCCN)CCCNC(=O)c1ccc2c(c1)C1c3cc(C(=O)NCCCN(C)CCCN)ccc3C2c2ccc(C(=O)NCCCN(C)CCCN)cc21 [Ark000013, N^2,N^7,N^15-tris(3-((3-aminopropyl)(methyl)amino)propyl)-9,10-dihydro-9,10-[1,2]benzenoanthracene-2,7,15-tricarboxamide]
[1]
  fluorescence quenching effect (FAM fluorescence signal): significant concentration dependent effect
[2]
  STD signals: small signals
  WaterLOGSY signals in the presence of RNA: clear reduction of negative sign signals
[3]
  fluorescence quenching effect (FAM fluorescence signal): significant concentration dependent effect
